EC50 data for three compounds are collected here from paper PMC8450354, “Codon Optimization of Insect Odorant Receptor Genes May Increase Their Stable Expression for Functional Characterization in HEK293 Cells” (Frontiers in Cellular Neuroscience, 2021).

The structures appear in SMILES notation.

What all share (experiment): calcium fluorescence (Fluo-4AM) assay, inducible stable HEK293 cells
Holding throughout (format): cell-based

In experiment [1] the target is T1, ItypOrco (Ips typographus, UniProt A0A7L8XYY7).
T1 construct: full-length, N-terminal Myc tag, codon-optimized gene, expressed without an OR

In experiment [2] the target is T2, ItypOR25 (Ips typographus, UniProt A0A8F3ERC7).
T2 construct: full-length, N-terminal V5 tag, codon-optimized gene; with ItypOrco
T2 sequence (A0A8F3ERC7 1-394): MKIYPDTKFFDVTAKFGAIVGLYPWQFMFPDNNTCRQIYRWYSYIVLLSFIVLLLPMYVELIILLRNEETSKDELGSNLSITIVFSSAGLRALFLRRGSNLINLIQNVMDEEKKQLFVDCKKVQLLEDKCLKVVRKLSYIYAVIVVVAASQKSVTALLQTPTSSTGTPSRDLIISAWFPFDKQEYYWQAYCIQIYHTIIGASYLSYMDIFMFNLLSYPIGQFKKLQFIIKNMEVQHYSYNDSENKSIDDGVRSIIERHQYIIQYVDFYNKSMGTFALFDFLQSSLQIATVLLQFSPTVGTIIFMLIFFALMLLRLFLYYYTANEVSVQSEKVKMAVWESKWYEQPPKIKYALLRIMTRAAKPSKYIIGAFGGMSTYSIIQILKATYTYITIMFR
T2 sequence (A0A7L8XYY7 1-480 partner): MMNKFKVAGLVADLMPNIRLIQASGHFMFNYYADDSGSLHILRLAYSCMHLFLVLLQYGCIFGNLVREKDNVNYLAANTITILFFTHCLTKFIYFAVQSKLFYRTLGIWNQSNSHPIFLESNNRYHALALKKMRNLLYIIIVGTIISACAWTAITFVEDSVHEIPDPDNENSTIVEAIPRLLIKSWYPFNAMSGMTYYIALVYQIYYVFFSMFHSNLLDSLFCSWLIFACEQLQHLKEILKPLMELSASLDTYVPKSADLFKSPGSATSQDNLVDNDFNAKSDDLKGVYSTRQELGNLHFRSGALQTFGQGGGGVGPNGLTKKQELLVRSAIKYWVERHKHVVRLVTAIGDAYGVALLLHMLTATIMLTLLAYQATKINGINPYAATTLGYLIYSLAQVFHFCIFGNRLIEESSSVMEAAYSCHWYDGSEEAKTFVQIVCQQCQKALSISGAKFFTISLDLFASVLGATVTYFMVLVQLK

Experiment [3] concerns the target T3, ItypOR49 (Ips typographus, UniProt A0A7L8XYT4).
T3 construct: full-length, N-terminal V5 tag, codon-optimized gene; with ItypOrco

T3 sequence (A0A7L8XYT4 entry or part of it, one chain of several): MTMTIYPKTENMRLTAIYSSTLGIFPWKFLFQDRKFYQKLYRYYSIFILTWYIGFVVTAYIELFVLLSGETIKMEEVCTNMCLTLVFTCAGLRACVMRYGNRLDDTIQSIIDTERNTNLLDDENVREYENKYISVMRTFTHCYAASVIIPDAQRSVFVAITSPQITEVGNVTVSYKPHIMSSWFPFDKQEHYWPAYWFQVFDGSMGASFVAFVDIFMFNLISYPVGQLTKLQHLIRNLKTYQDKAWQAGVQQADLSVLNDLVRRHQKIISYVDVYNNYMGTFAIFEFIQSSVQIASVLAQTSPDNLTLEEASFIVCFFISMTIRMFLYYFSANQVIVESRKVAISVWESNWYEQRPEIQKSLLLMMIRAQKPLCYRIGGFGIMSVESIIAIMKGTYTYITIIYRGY

The EC50 is the concentration giving half of the maximal effect. For `CCc1ccc(NC(=O)CSc2nnc(-c3cccnc3)n2CC)cc1` [VUAA1], the EC50 in experiment [1] is 21.1 µM.

For the compound `CC1=CC[C@@H]2[C@H](C1)C2(C)C` [(+)-3-carene], the EC50 in experiment [2] is roughly 24.5 µM. For the compound `C=CC(=C)C[C@@H](O)C=C(C)C` [(R)-(−)-ipsdienol], the EC50 in experiment [3] was 7.1 µM.
